Read-outs that look alike come from different tables or passages of the source.
Biological target: human μ-opiate receptor (Homo sapiens, UniProt P35372)
Experiment: Affinity for the human μ-opiate receptor ([3H]-naloxone displacement, SPA, CHO-K1 membrane preparation)
Assay type: binding
Conditions: for inhibition at 1 µM: read-out: μ-Opioid receptor, % inhibition [1 μM]; for Ki: read-out: μ-Opioid receptor, Ki
[1] = 1 μM test substance, inhibition of specific [3H]-naloxone binding

Sequence of human μ-opiate receptor (P35372 whole entry): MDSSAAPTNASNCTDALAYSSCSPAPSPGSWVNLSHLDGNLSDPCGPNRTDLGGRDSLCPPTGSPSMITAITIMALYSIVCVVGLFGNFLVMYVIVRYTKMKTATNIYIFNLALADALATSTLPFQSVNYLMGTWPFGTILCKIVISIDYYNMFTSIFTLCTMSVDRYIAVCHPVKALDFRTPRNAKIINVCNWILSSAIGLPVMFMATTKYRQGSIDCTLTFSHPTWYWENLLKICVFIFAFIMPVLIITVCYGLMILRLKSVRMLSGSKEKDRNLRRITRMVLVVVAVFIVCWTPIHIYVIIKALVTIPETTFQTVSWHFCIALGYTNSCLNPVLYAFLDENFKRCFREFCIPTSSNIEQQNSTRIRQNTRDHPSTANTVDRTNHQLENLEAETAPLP

Molecule `CN(C)C(c1cccc(F)c1)C1CCC(NC(=O)c2ccc(F)c(Cl)c2)CC1` (stereo not drawn) [compound 269, 3-chloro-N-{4-[dimethylamino-(3-fluoro-phenyl)-methyl]-cyclohexyl}-4-fluoro-benzamide] has an inhibition at 1 µM of 75% and a Ki of 47 nM.

`Cc1ccc(Oc2ncccc2C(=O)NC2CCC(C(c3cccs3)N(C)C)CC2)cc1` (stereo not drawn) [compound 220, N-[4-(dimethylamino-thiophen-2-yl-methyl)-cyclohexyl]-2-p-tolyloxy-nicotinamide] showed an inhibition at 1 µM of 88% and a Ki of 150 nM.

Work on `CC(Oc1ccccc1)C(=O)NCC1CCC(C(c2cccc(F)c2)N(C)C)CC1` (stereo not drawn) [compound 346, N-{4-[dimethylamino-(3-fluoro-phenyl)-methyl]-cyclohexylmethyl}-2-phenoxy-propionamide] yielded an inhibition at 1 µM of 90% and a Ki of 65 nM.

With `CN(C)C(c1ccccc1)C1CCC(NC(=O)c2cccc(C(F)(F)F)c2)CC1` (stereo not drawn) [compound 203, N-[4-(dimethylamino-phenyl-methyl)-cyclohexyl]-3-trifluoromethyl-benzamide] the inhibition at 1 µM was 94% and the Ki was 51 nM.

`Cc1ccccc1C(=O)NCCC1CCC(C(c2ccc(Cl)cc2)N(C)C)CC1` (stereo not drawn) [compound 419, N-(2-{4-[(4-chloro-phenyl)-dimethylamino-methyl]-cyclohexyl}-ethyl)-2-methyl-benzamide] showed an inhibition at 1 µM of 86% and a Ki of 32 nM.

In the case of `CN(C)C(c1ccc(Cl)cc1)C1CCC(CNC(=O)CC(C)(C)C)CC1` (stereo not drawn) [compound 309, N-{4-[(4-chloro-phenyl)-dimethylamino-methyl]-cyclohexylmethyl}-3,3-dimethyl-butyramide], the inhibition at 1 µM is reported as 98% and the Ki is reported as 5.6 nM.

With `CN(C)C(c1cccc(F)c1)C1CCC(NC(=O)c2ccc3nsnc3c2)CC1` (stereo not drawn) [compound 290, benzo[1,2,5]thiadiazole-5-carboxylic acid {4-[dimethylamino-(3-fluoro-phenyl)-methyl]-cyclohexyl}-amide] the inhibition at 1 µM was 70%.

`CN(C)C(c1ccc(Cl)cc1)C1CCC(O)(CCc2ccccc2)CC1` (stereo not drawn) [compound 163, 4-[(4-chloro-phenyl)-dimethylamino-methyl]-1-phenethyl-cyclohexanol] was tested, and the inhibition at 1 µM [1] was 81%.

Molecule `CCCCCCC1(O)CCC(C(c2ccc(Cl)cc2)N(C)C)CC1` (stereo not drawn) [compound 168, 4-[(4-chloro-phenyl)-dimethylamino-methyl]-1-hexyl-cyclohexanol] has an inhibition at 1 µM [1] of 58%.

`COc1c(C(=O)NCCC2CCC(C(CCc3ccccc3)N(C)C)CC2)csc1Cl` (stereo not drawn) [compound 476, 5-chloro-4-methoxy-thiophene-3-carboxylic acid {2-[4-(1-dimethylamino-3-phenyl-propyl)-cyclohexyl]-ethyl}-amide] showed an inhibition at 1 µM of 87% and a Ki of 84 nM.

With `CN(C)C(c1ccc(F)cc1)C1CCC(CCNC(=O)c2cccc(Br)c2)CC1` (stereo not drawn) [compound 459, 3-bromo-N-(2-{4-[dimethylamino-(4-fluoro-phenyl)-methyl]-cyclohexyl}-ethyl)-benzamide] the inhibition at 1 µM was 90% and the Ki was 31 nM.

With `COc1cccc(C(=O)NC2CCC(C(c3cccs3)N(C)C)CC2)c1` (stereo not drawn) [compound 199, N-[4-(dimethylamino-thiophen-2-yl-methyl)-cyclohexyl]-3-methoxy-benzamide] the inhibition at 1 µM was 94% and the Ki was 21 nM.

In the case of `Cc1cc(C(=O)NC2CCC(C(c3cccc(F)c3)N(C)C)CC2)c(C)o1` (stereo not drawn) [compound 265, 2,5-dimethyl-furan-3-carboxylic acid {4-[dimethylamino-(3-fluoro-phenyl)-methyl]-cyclohexyl}-amide], the inhibition at 1 µM is reported as 78% and the Ki is reported as 140 nM.

With `Cc1ccccc1C(=O)NCC1CCC(C(c2ccccc2)N(C)C)CC1` (single isomer, unassigned) [compound 325, N-[4-(dimethylamino-phenyl-methyl)-cyclohexylmethyl]-2-methyl-benzamide] the “μ-Opioid receptor, % inhibition [1 μM]” value (1 µM) was 94% and the Ki was 34 nM.

For `CN(C)C(c1ccccc1)C1CCC(NC(=O)c2cc(F)cc(C(F)(F)F)c2)CC1` (stereo not drawn) [compound 190, N-[4-(dimethylamino-phenyl-methyl)-cyclohexyl]-3-fluoro-5-trifluoromethyl-benzamide], the inhibition at 1 µM was 99% and the Ki was 25 nM.

Source: US8058475B2, “Substituted cyclohexylmethyl compounds” (Gruenenthal GmbH, priority 2005, dated 2011)
